Experiments:
[1] = target: T1, human recombinant D1 receptor (Homo sapiens, UniProt P21728); assay: D1 antagonistic activity test (LANCE cAMP, antagonism of dopamine-induced cAMP production in HEK293 cells); assay type: cell-based; conditions: HEK293 cells expressing human recombinant D1 receptor; test concentration 0.1 nM to 10000 nM; read-out: D1 Antagonistic Activity (IC50, nmol/L)
T1 construct: expressed in transfected cells; host or cells: HEK293
Method: • 1) D1 antagonistic activity test
The D1 antagonism of the compound was evaluated by testing the antagonistic action of the compounds against dopamine on the induction of cAMP production in HEK293 cells. The cAMP concentration test was performed according to the method described in the kit instructions. The test concentration of the compound was 0.1 nM to 10000 nM. SCH23390 was used as a positive control. The IC50 was calculated by Excelfit software.

[2] = target: T2, human recombinant D2 receptor (Homo sapiens, UniProt P14416); assay: D2 antagonistic activity test (LANCE cAMP, antagonism of dopamine inhibition of cAMP production in HEK293 cells); assay type: cell-based; conditions: HEK293 cells expressing human recombinant D2 receptor; test concentration 0.1 nM to 10000 nM; read-out: D2 Antagonistic Activity (IC50, nmol/L)
T2 construct: expressed in transfected cells; host or cells: HEK293
T2 sequence (P14416 whole entry): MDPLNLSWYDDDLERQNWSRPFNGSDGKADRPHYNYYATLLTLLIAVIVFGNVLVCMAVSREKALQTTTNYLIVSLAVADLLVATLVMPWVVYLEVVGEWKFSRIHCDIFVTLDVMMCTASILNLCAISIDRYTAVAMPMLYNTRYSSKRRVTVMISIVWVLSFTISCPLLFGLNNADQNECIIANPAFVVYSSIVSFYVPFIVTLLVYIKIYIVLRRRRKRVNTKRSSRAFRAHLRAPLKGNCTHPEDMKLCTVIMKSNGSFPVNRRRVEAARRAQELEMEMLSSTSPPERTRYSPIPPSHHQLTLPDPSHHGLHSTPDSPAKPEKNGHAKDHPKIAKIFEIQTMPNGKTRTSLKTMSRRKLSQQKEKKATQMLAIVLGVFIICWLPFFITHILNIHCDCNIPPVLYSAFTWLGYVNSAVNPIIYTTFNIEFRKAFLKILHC
Method: LANCE™ cAMP 384 Kit (PerkinElmer, USA) was used to test the antagonism of the compound against the D1 receptor using the HEK293 cells expressing human recombinant D1 receptor. The D1 antagonism of the compound was evaluated by testing the antagonistic action of the compounds against dopamine on the induction of cAMP production in HEK293 cells. The cAMP concentration test was performed according to the method described in the kit instructions. The test concentration of the compound was 0.1 nM to 10000 nM. SCH23390 was used as a positive control. The IC50 was calculated by Excelfit software. The test results of some compounds were shown in Table 1. • 2) D2 antagonistic activity test LANCE™ cAMP 384 Kit (PerkinElmer, USA) was used to test the antagonism of the compound against the D2 receptor using the HEK293 cells expressing human recombinant D2 receptor. The D2 antagonism of the compound was evaluated by testing the antagonistic action of the compounds against dopamine on the inhibition of cAMP production in HEK293 cells. The cAMP concentration test was performed according to the method described in the kit instructions. The test concentration of the compound was 0.1 nM to 10000 nM. Risperidone was used as a positive control. The IC50 was calculated by Excelfit software. The test results of some compounds were shown in Table 1 (ND means the test was not performed).

[3] = tested on: insomnia induced by injection with 4-Chlorophenylalanine (PCPA) in rats; assay: Sedative and hypnotic effects, PCPA-induced insomnia model in rats treated with sodium pentobarbital; assay type: in vivo, Wistar rats; conditions: for sleep time: FIG. 2
Method: The sedative and hypnotic effects of Example 60 were evaluated using a model of insomnia induced by injection with 4-Chlorophenylalanine (PCPA) in rats.
Dosage and method of administration: PCPA was administered at a dose of 150 mg/kg. […] was administered by a single intraperitoneal injection at 72 hours before the experiment in all Wistar rats. The diazepam group (DI) was administered at a dose of 2 mg/kg and 4 mg/kg, a single intraperitoneal injection; the test drug group was administered at a dose of 1 mg/kg and 3 mg/kg, a single intragastric administration; sodium pentobarbital was administered at a dose of 25 mg/kg, a single intraperitoneal injection. The administration volume was 10 ml/kg. On the day of the test, the model group was given sodium pentobarbital 30 minutes after the same volume of physiological saline was given; the DI group was given sodium pentobarbital 30 minutes after DI was administered; the test drug group was given sodium pentobarbital 60 minutes after the drug was administered.lndex observation: After the administration of sodium pentobarbital, the rats' response was closely observed. The time from the administration to 1 minute after the righting reflex disappeared is the sleep latency. The time from 1 minute after the righting reflex disappeared to the point that the righting reflex returned is sleep time.

[4] = tested on: PCP-induced high spontaneous activity in mice; assay: PCP-induced high spontaneous activity test in mice; assay type: in vivo, Male ICR mice; conditions: oral, PCP-induced high spontaneous activity in mice
Method: PCP (phencylidine) was dissolved in physiological saline to prepare a 7 mg/kg solution. The test compound was formulated with a 0.5% CMC-Na solution to a solution with suitable concentration, ready-to-use. Male ICR mice were 18-22 g. Mice were randomly divided into a solvent control group, a model control group, a positive control group, and each test drug group during the test. There were 8 mice in each group. Mice in each group were given each test drug by gavage. 45 minutes after the test drug was administered, mice were injected with a PCP (7 mg/kg) solution intraperitoneally. The spontaneous, open field video analysis system was used to record the mouse movement trajectory within 45 min after administration of test drug or saline, and then the mouse movement trajectory within 75 min after PCP administration. Spontaneous, open field video analysis system was used to analyze the mouse's movement trajectory, and the total distance of the movement of the mice in each group was counted. The result was expressed as mean±SD. Results were analyzed by one-way analysis of variance.

[5] = Metabolism of l-stepholidine (statement only, no method)

T1 sequence (P21728 whole entry): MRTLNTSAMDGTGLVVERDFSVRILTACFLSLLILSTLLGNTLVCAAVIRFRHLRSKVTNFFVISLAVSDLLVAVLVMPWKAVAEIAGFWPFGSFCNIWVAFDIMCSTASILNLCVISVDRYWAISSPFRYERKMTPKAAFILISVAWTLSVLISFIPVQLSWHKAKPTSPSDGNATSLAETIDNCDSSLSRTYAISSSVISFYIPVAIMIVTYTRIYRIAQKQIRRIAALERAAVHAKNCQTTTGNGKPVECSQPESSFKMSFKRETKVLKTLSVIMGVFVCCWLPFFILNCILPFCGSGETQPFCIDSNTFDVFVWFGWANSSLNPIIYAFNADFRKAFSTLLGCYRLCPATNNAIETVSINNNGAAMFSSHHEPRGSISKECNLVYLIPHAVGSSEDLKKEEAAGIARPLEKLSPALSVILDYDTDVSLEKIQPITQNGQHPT

COc1cc2c(cc1NS(C)(=O)=O)[C@@H]1Cc3ccc(OC)c(OC)c3CN1CC2 [Example 60, (S)-2-methanesulfonylamino-3,9,10-trimethoxy-6,8,13,13a-tetrahydro-5H-dibenzo[a,g] quinolizine]
IC50 [1]: 525 nmol/L
IC50 [2]: 6.2 nmol/L
sleep time ([3]; 1 mg/kg single intragastric administration, sodium pentobarbital 25 mg/kg ip 60 minutes later): significantly prolong
sleep latency ([3]; 3 mg/kg single intragastric administration, sodium pentobarbital 25 mg/kg ip 60 minutes later, FIG. 1, *P<0.05 vs model group): significantly reduce
sleep time ([3]; 3 mg/kg single intragastric administration, sodium pentobarbital 25 mg/kg ip 60 minutes later): prolong
hypnotic effect (overall) ([3]; PCPA-induced insomnia rats, 1 and 3 mg/kg intragastric): good hypnotic effect

COc1cc2c(cc1O)[C@@H]1Cc3ccc(O)c(OC)c3CN1CC2 [l-SPD, L-Stepholidine, reference compound]
IC50 [1]: 7.7 nmol/L
duration of effect / efficacy [4]: short duration of effect
IC50 [2]: 37 nmol/L
metabolism [5]: fast metabolism
